Counter-ions that a name gives are not always drawn. Like-named read-outs stand apart in the source and are kept apart here. Bounds are passed on as bounds.

For one data set, the system named is retinal ganglion cells. Conditions: rats with chronic moderately elevated IOP, cited from earlier work.
The test system of data set [1] is Human Cartilage explants, IL-1β-induced nitric oxide synthase (nitrite production). The data set can be described thus: Human cartilage explant assay (nitrite production, IL-1β induced). In kind it is cell-based. The note with it: inhibition of nitrite production, IL-1β stimulated explants. On the procedure: Bone pieces are rinsed twice with Dulbecco's Phosphate Buffered Saline (GibcoBRL) and once with Dulbecco's Modified Eagles Medium (GibcoBRL) and placed into a petri dish with phenol red free Minimum Essential Medium (MEM) (GibcoBRL). Cartilage was cut into small explants of approximately 15-45 mg in weight and one or two explants per well are placed into either 96 or 48 well culture plates with 200-500 μL of culture media per well. The culture media was either a custom modification of Minimum Essential Medium(Eagle) with Earle's salts (GibcoBRL) prepared without L-Arginine, without L-Glutamine and without phenol red or a custom modification of serumless Neuman and Tytell (GibcoBRL) medium prepared without L-arginine, without insulin, without ascorbic acid, without L-glutamine and without phenol red. Both are supplemented before use with 100 μM L-Arginine (Sigma), 2 mM L-glutamine, 1X HL-1 supplement (BioWhittaker), […] ascorbic acid (Sigma) and 150 pg/ml recombinant human IL-1β (RD Systems) to induce nitric oxide synthase. Compounds are then added in 10 μL aliquots and the explants incubated at 37° C. with 5% CO2 for 18-24 hours. The day old supernatant is then discarded and replaced with fresh culture media containing recombinant human IL-1β and compound and incubated for another 20-24 hours. […] All samples are done in quadruplicate. Unstimulated controls are cultured in media in the absence of recombinant human IL-1β. IC50 values (Table I)are determined from plotting the percent inhibition of nitrite production at six different concentrations of inhibitor.

For data set [2], the system named is LPS-induced increase in plasma nitrite/nitrate levels. In words: Endotoxin (LPS)-treated rats, plasma nitrite/nitrate levels. In kind it is in vivo, rat. The note with it: oral administration, plasma nitrite/nitrate 5 hours post-treatment. As to the method:
Plasma nitrite/nitrate levels can be determined 5 hours post-treatment.

Where [3] appears, read: Rattus norvegicus, read-out: ED50.

Regarding `N=C(N)NN` [aminoguanidine], the “neuroprotection / loss of retinal ganglion cells” value was “blocks loss of retinal ganglion cells” in the data set with retinal ganglion cells and “provide neuroprotection to retinal ganglion cells” with retinal ganglion cells (listed as Aminoguanidine). As usually defined, the IC50 is the concentration that inhibits the measured activity by half. `N=C1CCCC[C@H](CCCC[C@@H](N)C(=O)O)N1` [Example Y, ([…]R,2S)-[…]-aminohexahydro-7-imino-1H-azepine-2-hexanoic acid, trihydrate hydrochloride] had an IC50 in data set [1] of less than 10000 nM. Broadly, the ED50 is the dose at which the effect has come halfway, by size or by number of responders. The melting point is the temperature of the solid-liquid transition. In turn, `CC(=NO)NC/C(F)=C\CC[C@H](N)C(=O)O` [Example G, (2S,5E)-2-amino-6-fluoro-7-[(1-hydroximinoethyl)amino]-5-heptenoic acid] yielded a melting point of 198 to 200 °C. Moreover, the median effective dose (ED50) in data set [2] (setting [3]) is less than 0.1 mg/kg. Take `CC(=N)NCC(F)=CCC[C@H](N)C(=O)O` (mixture of isomers) [Example B, (2S,5E/Z)-2-amino-6-fluoro-7-[(1-iminoethyl)amino]-5-heptenoic acid, dihydrochloride]: the midpoint of inhibition in data set [1] (Homo sapiens), the IC50, lay at 200 nM. Turning to `CC(=N)NC/C(F)=C\CC[C@H](N)C(=O)O` [Example A, (2S,5E)-2-amino-6-fluoro-7-[(1-iminoethyl)amino]-5-heptenoic acid, dihydrochloride, monohydrate], the ED50 in data set [2] (setting [3]) is less than 0.1 mg/kg; in data set [2] (dihydrochloride, monohydrate), less than 0.1 mg/kg. This compound also displayed an IC50 in data set [1] (Homo sapiens) of 100 nM. `COC[C@](N)(CSCCNC(C)=N)C(=O)O` [Example J, 2-[[[2-[(1-Iminoethyl)amino]ethyl]thio]methyl]-O-methyl-D-serine, dihydrochloride] came in with an IC50 in data set [1] of 8200 nM. As for `N=C1CCCC[C@H](CCCC[C@@H](N)C(=O)O)N1` [Example V, ([…]R,2S)-[…]-aminohexahydro-7-imino-1H-azepine-2-hexanoic acid, trihydrate hydrochloride], the ED50 in data set [2] (setting [3]) was less than 3 mg/kg. Also, in data set [1] (Homo sapiens), the IC50 was less than 10000 nM. For `N=C1CCCC[C@@H](CCCC[C@H](N)C(=O)O)N1` [Example W, ([…]S,2R)-[…]-aminohexahydro-7-imino-1H-azepine-2-hexanoic acid, trihydrate hydrochloride] the same measures were greater than 10 mg/kg and greater than 30000 nM. As for `N=C1CCCC[C@H](CCCC[C@H](N)C(=O)O)N1` [Example X, ([…]S,2S)-[…]-aminohexahydro-7-imino-1H-azepine-2-hexanoic acid, trihydrate hydrochloride], the IC50 in data set [1] (Homo sapiens) is less than 10000 nM. On to `CC(=N)NC/C=C\CC[C@](C)(N)C(=O)O.Cl.Cl` [Example LL, (2S,5Z)-2-amino-2-methyl-7-[(1-iminoethyl)amino]-5-heptenoic acid, dihydrochloride], for which the ED50 in data set [2] (setting [3]) was found to be 0.3 mg/kg. In addition, in data set [1] (Homo sapiens), the IC50 came out at 800 nM.

As for `CC(=N)NC/C(F)=C\CC[C@H](N)C(=O)Nc1nnn[nH]1` [Example H, (2S,5E)-2-amino-6-fluoro-7-[(1-iminoethyl)amino]-N-(1H-tetrazol-5-yl) 5-heptenamide, dihydrochloride], the ED50 in data set [2] (setting [3]) is less than 0.3 mg/kg.

`CC(=N)NC/C(F)=C\CC[C@](C)(N)C(=O)O.Cl.Cl` [Example HH, (2S,5E)-2-amino-2-methyl-6-fluoro-7-[(1-iminoethyl)amino]-5-heptenoic acid, dihydrochloride]: the ED50 in data set [2] (setting [3]) was 0.4 mg/kg. In data set [1] (Homo sapiens), this compound yielded an IC50 of 400 nM. Taken in the same sequence, the figures for `CC(=N)NC/C(F)=C/CC[C@H](N)C(=O)O` [Example D, (2S,5Z)-2-amino-6-fluoro-7-[(1-iminoethyl)amino]-5-heptenoic acid, trihydrochloride, dihydrate] were greater than 10 mg/kg and 2500 nM.

Values taken from patent US20030119826A1, “Neuroprotective treatment methods using selective iNOS inhibitors” (Pharmacia Corporation, priority 2001, published 2003).
